Patent publication US10005754B2, “Form of spirodiclofen, a process for its preparation and use the same” (priority 2015, dated 2018)

Assay: Comparison of storage stability of suspension concentrates (CIPAC MT 46.3)
Format: physicochemical
Protocol: Samples prepared in Examples 4 and 5 were stored at 54° C. for 1 month, 3 months and 6 months. The procedures are followed according to CIPAC MT 46.3. The concentration of spirodiclofen was measured at the end of each storage time by HPLC. The aggregation was measured by observation. The original concentration of spirodiclofen in each formulation was 25%.

Structure (SMILES)	storage stability / aggregation after prolong storage (listed as spirodiclofen in amorphous state)	storage stability / aggregation after prolong storage (listed as crystalline modification I of spirodiclofen)
CCC(C)(C)C(=O)OC1=C(c2ccc(Cl)cc2Cl)C(=O)OC12CCCCC2 [Example 1, 3-(2,4-dichlorophenyl)-2-oxo-1-oxaspiro[4.5]dec-3-en-4-yl-2,2-dimethyl butyrate]	high tendency of aggregation	
CCC(C)(C)C(=O)OC1=C(c2ccc(Cl)cc2Cl)C(=O)OC12CCCCC2 [Example 2, 3-(2,4-dichlorophenyl)-2-oxo-1-oxaspiro[4.5]dec-3-en-4-yl-2,2-dimethyl butyrate]		significant improvement in its stability without aggregation
